The values below are quoted from earlier work in patent US20260097052A1, “NOVEL ORAL CANNABINOID FORMULATIONS” (Esolate Pharmaceuticals Ltd, priority 2023, published 2026).

The conditions of this data set: humans.

Regarding `C=C(C)[C@@H]1CCC(C)=C[C@H]1c1c(O)cc(CCCCC)cc1O` [CBD, cannabidiol], the Oral bioavailability entry is “approximately 6%”.
